The source of these data is patent publication US12404279B2, “Deubiquitinase inhibitors and methods of use thereof” (Molecure S.A., priority 2021, dated 2025).

Counter-ions that a name gives are not always drawn.

Chain of full-length USP7 (Q93009 whole entry): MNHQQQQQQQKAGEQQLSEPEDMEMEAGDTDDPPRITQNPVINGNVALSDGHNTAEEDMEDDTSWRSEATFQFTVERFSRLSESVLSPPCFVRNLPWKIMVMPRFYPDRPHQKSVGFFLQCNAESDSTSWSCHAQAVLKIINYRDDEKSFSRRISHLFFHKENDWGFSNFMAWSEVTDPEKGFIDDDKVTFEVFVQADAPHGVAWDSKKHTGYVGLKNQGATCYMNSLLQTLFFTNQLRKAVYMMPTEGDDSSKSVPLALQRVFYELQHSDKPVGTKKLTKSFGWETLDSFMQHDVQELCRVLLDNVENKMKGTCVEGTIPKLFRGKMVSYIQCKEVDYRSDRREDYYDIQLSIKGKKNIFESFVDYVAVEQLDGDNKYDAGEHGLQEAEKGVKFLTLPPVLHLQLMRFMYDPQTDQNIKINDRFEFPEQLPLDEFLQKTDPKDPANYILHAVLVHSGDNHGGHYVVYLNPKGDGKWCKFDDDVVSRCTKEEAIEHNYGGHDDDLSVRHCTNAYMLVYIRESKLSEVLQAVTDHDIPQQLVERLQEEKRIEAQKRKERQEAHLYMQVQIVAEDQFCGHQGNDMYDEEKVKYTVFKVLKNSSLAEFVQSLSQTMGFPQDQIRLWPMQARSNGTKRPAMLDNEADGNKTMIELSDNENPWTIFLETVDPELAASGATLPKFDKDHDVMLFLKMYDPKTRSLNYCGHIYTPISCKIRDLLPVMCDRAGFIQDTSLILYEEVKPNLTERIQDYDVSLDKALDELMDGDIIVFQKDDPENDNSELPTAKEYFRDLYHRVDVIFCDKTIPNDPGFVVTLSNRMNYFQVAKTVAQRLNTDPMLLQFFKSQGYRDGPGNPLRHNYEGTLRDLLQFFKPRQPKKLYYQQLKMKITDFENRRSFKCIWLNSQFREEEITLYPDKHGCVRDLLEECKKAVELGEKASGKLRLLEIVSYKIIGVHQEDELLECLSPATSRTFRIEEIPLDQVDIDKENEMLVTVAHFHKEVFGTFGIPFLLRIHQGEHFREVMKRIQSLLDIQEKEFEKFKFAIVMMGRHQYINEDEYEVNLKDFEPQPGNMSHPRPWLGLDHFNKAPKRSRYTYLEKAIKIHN

The target in one assay is full-length USP7 (Homo sapiens (Human), UniProt Q93009). As to the kind of experiment: Enzymatic assay to determine IC50 of USP7 inhibitors (Ubiquitin-Rhodamine 110 cleavage). In kind it is biochemical. Particulars: 0.5 nM USP7, 0.5 μM Ubiquitin-Rhodamine 110, 45 min at 37° C. In outline:
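Full-length USP7 (0.5 nM) in 50 mM HEPES pH 7.5, 150 mM NaCl, 1 mM DTT, 1 mg/ml BSA, 0.05% Tween20 was preincubated 15 min with DTT at room temperature before compound addition.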
In the case of `Cc1cc(C#N)nc(-c2ccnc3cc(CN4C(=O)C5C(C4=O)C5(C)C)sc23)c1C(=O)N1CCNC(C)(C)C1` (centres unmarked) [Example 53, 6-(2-((6,6-dimethyl-2,4-dioxo-3-azabicyclo[3.1.0]hexan-3-yl)methyl)thieno[3,2-b]pyridin-7-yl)-5-(3,3-dimethylpiperazine-1-carbonyl)-4-methylpicolinonitrile hydrochloride], the IC50 is 1 to 10 µM.

Molecule `Cc1nc(C(F)(F)F)cc(-c2ccnc3cc(CN4C(=O)C5C(C4=O)C5(C)C)sc23)c1CC1CNCCO1` (racemic) [Example 91, 6,6-dimethyl-3-((7-(2-methyl-3-(morpholin-2-ylmethyl)-6-(trifluoromethyl)pyridin-4-yl)thieno[3,2-b]pyridin-2-yl)methyl)-3-azabicyclo[3.1.0]hexane-2,4-dione 2,2,2-trifluoroacetate] displayed an IC50 of less than 0.5 µM.

For the molecule “6,6-dimethyl-3-((7-(2-methyl-3-(pyrrolidin-3-ylamino)-6-(trifluoromethyl)pyridin-4-yl)thieno[3,2-b]pyridin-2-yl)methyl)-3-azabicyclo[3.1.0]hexane-2,4-dione 2,2,2-trifluoroacetate [Example 25]”, the half-maximal inhibitory concentration (IC50) is less than 0.5 µM.

The molecule `Cc1nc(C(F)(F)F)cc(-c2ccnc3cc(CN4C(=O)C5C(C4=O)C5(C)C)sc23)c1OC1CCNC1` (racemic) [Example 21, 6,6-dimethyl-3-((7-(2-methyl-3-(pyrrolidin-3-yloxy)-6-(trifluoromethyl)pyridin-4-yl)thieno[3,2-b]pyridin-2-yl)methyl)-3-azabicyclo[3.1.0]hexane-2,4-dione 2,2,2-trifluoroacetate] registered an IC50 of less than 0.5 µM.

`Cc1cc(C(F)(F)F)nc(-c2ccnc3cc(CN4C(=O)C5C(C4=O)C5(C)C)sc23)c1C(=O)N1C[C@H](N)[C@@H](F)C1` (stereo partly drawn) [Example 170, 3-((7-(3-((3S,4S)-3-amino-4-fluoropyrrolidine-1-carbonyl)-4-methyl-6-(trifluoromethyl)pyridin-2-yl)thieno[3,2-b]pyridin-2-yl)methyl)-6,6-dimethyl-3-azabicyclo[3.1.0]hexane-2,4-dione hydrochloride]: the IC50 is less than 0.5 µM.

`Cc1nc(Cl)cc(-c2ccnc3cc(CN4C(=O)C5C(C4=O)C5(C)C)sc23)c1NC1CCNC1` (racemic) [Example 125, 3-((7-(6-chloro-2-methyl-3-(pyrrolidin-3-ylamino)pyridin-4-yl)thieno[3,2-b]pyridin-2-yl)methyl)-6,6-dimethyl-3-azabicyclo[3.1.0]hexane-2,4-dione 2,2,2-trifluoroacetate] came in with an IC50 of less than 0.5 µM.

In turn, `Cc1cc(C)c(NC2CCNC2)c(-c2ccnc3cc(CN4C(=O)C5C(C4=O)C5(C)C)sc23)n1` (racemic) [Example 124, 3-((7-(4,6-dimethyl-3-(pyrrolidin-3-ylamino)pyridin-2-yl)thieno[3,2-b]pyridin-2-yl)methyl)-6,6-dimethyl-3-azabicyclo[3.1.0]hexane-2,4-dione 2,2,2-trifluoroacetate] came in with an IC50 of less than 0.5 µM.

With `Cc1cc(C(F)(F)F)nc(-c2ccnc3cc(CN4C(=O)C5C(C4=O)C5(C)C)sc23)c1C(=O)N1CC[C@H](F)C1` (stereo partly drawn) [Example 114, 3-((7-(3-((S)-3-fluoropyrrolidine-1-carbonyl)-4-methyl-6-(trifluoromethyl)pyridin-2-yl)thieno[3,2-b]pyridin-2-yl)methyl)-6,6-dimethyl-3-azabicyclo[3.1.0]hexane-2,4-dione hydrochloride], the IC50 was less than 0.5 µM.

With “3-((7-(3-(3,3-difluoroazetidine-1-carbonyl)-4,6-dimethylpyridin-2-yl)thieno[3,2-b]pyridin-2-yl)methyl)-6,6-dimethyl-3-azabicyclo[3.1.0]hexane-2,4-dione hydrochloride [Example 85]”, the half-inhibitory concentration (IC50) was in the range of 1 to 10 µM.

`Cc1cc(C(F)(F)F)nc(-c2ccnc3cc(CN4C(=O)C5C(C4=O)C5(C)C)sc23)c1C(=O)N1C[C@@H](N)C2(CC2)C1` (stereo partly drawn) [Example 173, 3-((7-(3-((S)-7-amino-5-azaspiro[2.4]heptane-5-carbonyl)-4-methyl-6-(trifluoromethyl)pyridin-2-yl)thieno[3,2-b]pyridin-2-yl)methyl)-6,6-dimethyl-3-azabicyclo[3.1.0]hexane-2,4-dione hydrochloride] had a concentration for half-maximal inhibition (IC50) of less than 0.5 µM.

Regarding `Cc1nc(C#N)cc(-c2ccnc3cc(CN4C(=O)C5C(C4=O)C5(C)C)sc23)c1C(=O)N1CCNCC1` (centres unmarked) [Example 17, 4-(2-((6,6-dimethyl-2,4-dioxo-3-azabicyclo[3.1.0]hexan-3-yl)methyl)thieno[3,2-b]pyridin-7-yl)-6-methyl-5-(piperazine-1-carbonyl)picolinonitrile hydrochloride], the IC50 lay within 0.5 to 1 µM.

With `Cc1nc(Cl)cc(-c2ccnc3cc(CN4C(=O)C5C(C4=O)C5(C)C)sc23)c1NC(=O)[C@@H]1CCNC1` (stereo partly drawn) [Example 120, (3R)—N-(6-chloro-4-(2-((6,6-dimethyl-2,4-dioxo-3-azabicyclo[3.1.0]hexan-3-yl)methyl)thieno[3,2-b]pyridin-7-yl)-2-methylpyridin-3-yl)pyrrolidine-3-carboxamide 2,2,2-trifluoroacetate], the IC50 was 1 to 10 µM.

`Cc1nc(C(F)(F)F)cc(-c2ccnc3cc(CN4C(=O)C5C(C4=O)C5(C)C)sc23)c1NC(=O)C(F)(F)F` (centres unmarked) [Example 62, N-(4-(2-((6,6-dimethyl-2,4-dioxo-3-azabicyclo[3.1.0]hexan-3-yl)methyl)thieno[3,2-b]pyridin-7-yl)-2-methyl-6-(trifluoromethyl)pyridin-3-yl)-2,2,2-trifluoroacetamide 2,2,2-trifluoroacetate] showed an IC50 of 1 to 10 µM.

For the molecule `Cc1cc(C(F)(F)F)nc(-c2ccnc3cc(CN4C(=O)C5C(C4=O)C5(C)C)sc23)c1CN1CC[C@@H]2CNC[C@@H]21` (stereo partly drawn) [Example 159, 3-((7-(3-(((3aR,6aR)-hexahydropyrrolo[3,4-b]pyrrol-1(2H)-yl)methyl)-4-methyl-6-(trifluoromethyl)pyridin-2-yl)thieno[3,2-b]pyridin-2-yl)methyl)-6,6-dimethyl-3-azabicyclo[3.1.0]hexane-2,4-dione trihydrochloride], the IC50 is less than 0.5 µM.

In turn, `Cc1nc(C#N)cc(-c2ccnc3cc(CN4C(=O)C5C(C4=O)C5(C)C)sc23)c1C(=O)N1CCC(F)(F)C1` (centres unmarked) [Example 10, 5-(3,3-difluoropyrrolidine-1-carbonyl)-4-(2-((6,6-dimethyl-2,4-dioxo-3-azabicyclo[3.1.0]hexan-3-yl)methyl)thieno[3,2-b]pyridin-7-yl)-6-methylpicolinonitrile 2,2,2-trifluoroacetate] gave an IC50 of 1 to 10 µM.

The molecule “ethyl 5-(2-((6,6-dimethyl-2,4-dioxo-3-azabicyclo[3.1.0]hexan-3-yl)methyl)thieno[3,2-b]pyridin-7-yl)-2-methyl-1-(((S)-morpholin-2-yl)methyl)-1H-pyrrole-3-carboxylate 2,2,2-trifluoroacetate [Example 148]” returned an IC50 of 1 to 10 µM.

Molecule `Cc1cc(Cl)nc(-c2ccnc3cc(CN4C(=O)C5C(C4=O)C5(C)C)sc23)c1OC1CCNC1` (racemic) [Example 2, 3-((7-(6-chloro-4-methyl-3-(pyrrolidin-3-yloxy)pyridin-2-yl)thieno[3,2-b]pyridin-2-yl)methyl)-6,6-dimethyl-3-azabicyclo[3.1.0]hexane-2,4-dione hydrochloride] showed an IC50 of less than 0.5 µM.

Take `Cc1c([N+](=O)[O-])cc(-c2ccnc3cc(CN4C(=O)C5C(C4=O)C5(C)C)sc23)n1C[C@H]1CNCCO1` (stereo partly drawn) [Example 167, 6,6-dimethyl-3-((7-(5-methyl-1-(((R)-morpholin-2-yl)methyl)-4-nitro-1H-pyrrol-2-yl)thieno[3,2-b]pyridin-2-yl)methyl)-3-azabicyclo[3.1.0]hexane-2,4-dione hydrochloride]: the IC50 was less than 0.5 µM.

`Cc1cc(C(F)(F)F)nc(-c2ccnc3cc(CN4C(=O)C5C(C4=O)C5(C)C)sc23)c1C(=O)N1CCC(F)(F)C1` (centres unmarked) [Example 83, 3-((7-(3-(3,3-difluoropyrrolidine-1-carbonyl)-4-methyl-6-(trifluoromethyl)pyridin-2-yl)thieno[3,2-b]pyridin-2-yl)methyl)-6,6-dimethyl-3-azabicyclo[3.1.0]hexane-2,4-dione hydrochloride] yielded an IC50 of less than 0.5 µM.

Staying with this assay, now noted: at 1 μM of the test compound; given where IC50 not determined yet; read-out: percent value of inhibition of USP7 activity.
With `Cc1ccnc(-c2ccnc3cc(CN4C(=O)C5C(C4=O)C5(C)C)sc23)c1C(=O)N1CCOCC1` (centres unmarked) [Example 48, 6,6-dimethyl-3-((7-(4-methyl-3-(morpholine-4-carbonyl)pyridin-2-yl)thieno[3,2-b]pyridin-2-yl)methyl)-3-azabicyclo[3.1.0]hexane-2,4-dione hydrochloride], the inhibition at 1 µM was less than 20%.

`Cc1cc(Cl)cc(-c2ccnc3nc(C)n(C)c23)c1O[C@H]1CCCNC1` [Example 69, (S)-7-(5-chloro-3-methyl-2-(piperidin-3-yloxy)phenyl)-1,2-dimethyl-1H-imidazo[4,5-b]pyridine hydrochloride]: the inhibition at 1 µM was less than 20%.

Consider `Cc1c(N)cc(-c2ccnc3cc(CN4C(=O)C5C(C4=O)C5(C)C)sc23)n1C[C@@H]1CNCCO1` (stereo partly drawn) [Example 176, 3-((7-(4-amino-5-methyl-1-(((S)-morpholin-2-yl)methyl)-1H-pyrrol-2-yl)thieno[3,2-b]pyridin-2-yl))methyl)-6,6-dimethyl-3-azabicyclo[3.1.0]hexane-2,4-dione hydrochloride], for which the inhibition at 1 µM is less than 20%.

As to `Cc1cc(C(F)(F)F)nc(-c2ccnc3cc(CN4C(=O)C5C(C4=O)C5(C)C)sc23)c1C(=O)N1C[C@@H](C)[C@H](N(C)C)C1` (stereo partly drawn) [Example 172, 3-((7-(3-((3S,4R)-3-(dimethylamino)-4-methylpyrrolidine-1-carbonyl)-4-methyl-6-(trifluoromethyl)pyridin-2-yl)thieno[3,2-b]pyridin-2-yl)methyl)-6,6-dimethyl-3-azabicyclo[3.1.0]hexane-2,4-dione hydrochloride], the inhibition at 1 µM was more than 70%.

For orientation: IC50 means the point on the concentration scale where inhibition reaches its midpoint. The inhibition is the change of the read-out against control, counted positive when it falls.
